Data reported in ChEMBL document CHEMBL1201862, “PubChem BioAssay data set” (2004).
Active and inactive are the calls of the source. Rule as the data show it: actives have a measured IC50 and inactives only a lower limit.

Target: Envelope glycoprotein gp160 (Human immunodeficiency virus 1, UniProt Q6QLK5)
Assay: inhibitors of HIV fusion peptide binding, primary screen, biochemical, uHTS, fluorescence dequenching (AID 1986)

Envelope glycoprotein gp160, sequence (Q6QLK5 whole entry, the tested form may be a part): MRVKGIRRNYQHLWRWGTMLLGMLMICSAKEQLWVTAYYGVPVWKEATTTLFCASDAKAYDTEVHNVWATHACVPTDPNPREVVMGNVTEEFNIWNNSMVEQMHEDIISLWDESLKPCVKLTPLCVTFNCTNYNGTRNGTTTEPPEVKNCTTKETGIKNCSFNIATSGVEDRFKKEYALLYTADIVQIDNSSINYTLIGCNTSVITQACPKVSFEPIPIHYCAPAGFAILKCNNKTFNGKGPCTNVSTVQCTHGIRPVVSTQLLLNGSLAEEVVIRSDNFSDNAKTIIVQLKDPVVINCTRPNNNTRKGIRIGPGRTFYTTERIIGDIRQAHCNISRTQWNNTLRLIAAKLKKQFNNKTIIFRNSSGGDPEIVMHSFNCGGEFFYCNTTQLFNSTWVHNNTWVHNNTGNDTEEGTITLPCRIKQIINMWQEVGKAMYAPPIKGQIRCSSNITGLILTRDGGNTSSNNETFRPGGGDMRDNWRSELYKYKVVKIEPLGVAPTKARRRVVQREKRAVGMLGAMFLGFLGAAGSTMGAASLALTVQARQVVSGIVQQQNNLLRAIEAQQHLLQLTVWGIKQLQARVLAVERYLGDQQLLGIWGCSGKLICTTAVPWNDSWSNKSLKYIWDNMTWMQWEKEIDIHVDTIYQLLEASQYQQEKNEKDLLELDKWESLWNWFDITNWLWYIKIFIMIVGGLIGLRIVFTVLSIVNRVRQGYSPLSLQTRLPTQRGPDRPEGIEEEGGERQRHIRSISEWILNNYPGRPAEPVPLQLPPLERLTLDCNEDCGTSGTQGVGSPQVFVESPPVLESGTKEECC

Row | Structure (SMILES) | IC50
1 | Cc1cccc(S(=O)(=O)Nc2nc3ccccc3nc2Nc2cccc(C(=O)O)c2)c1 | 29 µM (active)
2 | O=C(O)c1[nH]c2ccccc2c1C(c1cccc(O)c1)c1c(C(=O)O)[nH]c2ccccc12 | 25.8 µM (active)
